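Five compound concentrations were applied to cells in 96-well plates for 48 hours; endpoints were derived by simple linear interpolation of the resulting dose-response curve. GI50: concentration for 50% inhibition of growth. TGI: total growth inhibition.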
What was measured:
Experiment in all cases: NCI-60 cell line screen, 48 h
OVCAR-8 ovarian = tested on: OVCAR-8 ovarian
HCC-2998 colon = tested on: HCC-2998 colon
RXF 393 renal = tested on: RXF 393 renal
SR leukemia = tested on: SR leukemia
A549 NSCLC = tested on: A549 NSCLC
SK-OV-3 ovarian = tested on: SK-OV-3 ovarian
M14 melanoma = tested on: M14 melanoma
SK-MEL-2 melanoma = tested on: SK-MEL-2 melanoma
NCI-H23 lung = tested on: NCI-H23 lung
KM12 colon = tested on: KM12 colon
MDA-N = tested on: MDA-N

| Compound | TGI (OVCAR-8 ovarian) [µM] | TGI (HCC-2998 colon) [µM] | TGI (RXF 393 renal) [µM] | TGI (SR leukemia) [µM] | TGI (A549 NSCLC) [µM] | TGI (SK-OV-3 ovarian) [µM] | TGI (M14 melanoma) [µM] | TGI (SK-MEL-2 melanoma) [µM] | TGI (NCI-H23 lung) [µM] | TGI (KM12 colon) [µM] | TGI (MDA-N) [µM] | GI50 (OVCAR-8 ovarian) [µM] | GI50 (HCC-2998 colon) [µM] | GI50 (RXF 393 renal) [µM] | GI50 (A549 NSCLC) [µM] | GI50 (SK-OV-3 ovarian) [µM] | GI50 (KM12 colon) [µM] | GI50 (M14 melanoma) [µM] | GI50 (SK-MEL-2 melanoma) [µM] | GI50 (NCI-H23 lung) [µM] |
| --- | --- | --- | --- | --- | --- | --- | --- | --- | --- | --- | --- | --- | --- | --- | --- | --- | --- | --- | --- | --- |
| O=C1C(/C=C/c2ccc(Cl)cc2)=NNC2N1N=C1NC(=O)C3(NN12)c1ccccc1-c1ccccc13 (centres undefined) | > 100 | > 100 | > 100 | 60.3 | > 100 | > 100 | > 100 | > 100 | > 100 |  |  |  |  |  |  |  |  |  |  |  |
| O=c1[nH]c(=O)n(C2CC(O)C(CO)O2)cc1OCCCc1ccccc1 (centres undefined) | > 100 |  | > 100 |  | > 100 | > 100 | > 100 |  | > 100 | > 100 | > 100 |  |  |  |  |  |  |  |  |  |
| Nc1c(-c2nc3ccccc3s2)c2ccc([N+](=O)[O-])cc2c(=O)n1-c1cccc(C(=O)O)c1 | 68.6 | > 100 |  | 44.1 | > 100 |  |  | 75.4 | 92.8 | > 100 | > 100 |  |  |  |  |  |  |  |  |  |
| COCC1CCCN1c1ccc(/C=C(/C#N)C(N)=S)cc1 (centres undefined) | > 100 | > 100 | > 100 |  | > 100 | > 100 | > 100 | > 100 | > 100 | > 100 |  | > 100 | > 100 | > 100 | > 100 | > 100 | 39.5 | > 100 | > 100 | > 100 |
| CC1=C2c3c(C)ccc4ccc(C)c(c34)C2(O)C(C)C1=O (centres undefined) | 49.4 | > 100 |  | > 100 | > 100 | > 100 | > 100 | > 100 |  | > 100 | > 100 |  |  |  |  |  |  |  |  |  |
| NC(=O)N1N=C2c3ccccc3CC[C@@H]2C1c1ccccc1 (some centres undefined) | > 100 | > 100 | > 100 |  | > 100 | > 100 | > 100 | > 100 | > 100 | > 100 |  |  |  |  |  |  |  |  |  |  |
| COc1cc(-c2oc3c(OC)c(O)c(OC)c(O)c3c(=O)c2OC)cc(O)c1OC | > 100 | > 100 | 79.4 |  | > 100 | 49.3 | > 100 | > 100 | 76.8 | > 100 | 36.2 |  |  |  |  |  |  |  |  |  |
| Cc1cccc2c1Oc1cc(Cl)ccc1C2NC(=O)CCN1CCN(CCO)CC1 (centres undefined) | 26.3 | 43.7 |  | 45.1 | 23.7 | > 100 | 30.3 |  | 51.5 | 11.5 | 14.6 |  |  |  |  |  |  |  |  |  |
| O=C1CN2Cc3cc(N4CCOCC4)ccc3N=C2N1 | > 100 |  | > 100 | > 100 |  | > 100 | > 100 | > 100 | > 100 | > 100 |  |  |  |  |  |  |  |  |  |  |
| COc1cccc(NC(=S)Nn2c(C)nc3ccccc3c2=O)c1 | > 100 |  | > 100 | > 100 | > 100 | > 100 | > 100 | > 100 | > 100 | > 100 |  |  |  |  |  |  |  |  |  |  |
| CCCn1c(SCC)c2ccccc2c1-c1nc(F)nc(F)n1 |  | > 100 | > 100 | > 100 | > 100 |  | > 100 | > 100 | > 100 | > 100 |  |  |  |  |  |  |  |  |  |  |
| CC(OC(=O)NCn1cc(-c2ccccc2)nn1)c1ccccc1 (centres undefined) | > 100 | > 100 |  | > 100 | > 100 |  | 34.9 | > 100 | 76.8 | > 100 |  |  |  |  |  |  |  |  |  |  |
| O=C(/C=C/c1ccc(Cl)cc1)Oc1ccc(/C=C2\CCCCC2=O)cc1 | > 100 | > 100 |  | > 100 | > 100 |  | > 100 | > 100 | > 100 | > 100 | > 100 |  |  |  |  |  |  |  |  |  |
| COC1=CC(=O)[C@H]2[C@H](C)C(c3ccccc3)[C@@]2(C)C1=O (some centres undefined) | > 100 | > 100 | > 100 | > 100 | > 100 | > 100 | > 100 | > 100 | > 100 | > 100 |  |  |  |  |  |  |  |  |  |  |
| O=C1CCC[C@]2(CCC[C@@H](O)C2)N1 | > 100 | > 100 | > 100 |  | > 100 | > 100 | > 100 | > 100 |  | > 100 | > 100 |  |  |  |  |  |  |  |  |  |
| COC(=O)C1=C(C(=O)OC)C2(OC(C)=O)c3ccccc3-c3ccccc3C12 (centres undefined) | 12.2 | 31 | 9.17 | 16.5 | 31.9 | 29.1 | 9.47 | 29.2 | 25.6 | 26.8 |  |  |  |  |  |  |  |  |  |  |
| N#Cc1c(-c2ccco2)cc(-c2ccc(NCc3nc4ccccc4[nH]3)cc2)nc1N | 46.3 | 54.7 | 68.5 |  | 93.8 | > 100 | 35.8 | 40.3 | 48.8 | 38 |  |  |  |  |  |  |  |  |  |  |
| O=C(O)C1CCCN1Cc1cc2ccccc2c2ccccc12 (centres undefined) | > 100 |  | > 100 |  | > 100 | > 100 | > 100 | > 100 | > 100 | > 100 | > 100 |  |  |  |  |  |  |  |  |  |
| CCCc1cc(=O)oc2c3c(c4c(c12)OC(C)(C)C=C4)O[C@@H](C)[C@H](C)C3=O | 45.4 | 34.5 |  | 41.6 | 24.5 |  |  |  | 38.4 | 27.9 | 36.4 |  |  |  |  |  |  |  |  |  |
| COc1cc2c(c(C)c1O)[C@H]1COc3ccccc3[C@H]1O2 | 67.3 |  | 54 |  | 81.6 | > 100 | 24.6 | > 100 | 64.2 | > 100 |  |  |  |  |  |  |  |  |  |  |
| CC1(C)CC(=O)C2=C(C1)c1c(ccc3ccccc13)NC2c1cn(Cc2ccc(Cl)cc2)c2ccccc12 (centres undefined) | > 100 |  |  | > 100 | > 100 | > 100 | > 100 | > 100 | > 100 | > 100 | > 100 |  |  |  |  |  |  |  |  |  |
| O=c1oc2ccccc2c(O)c1C(c1ccco1)c1c(O)c2ccccc2oc1=O | 82 | 55.1 |  |  |  |  |  | > 100 | > 100 | > 100 | 44.9 |  |  |  |  |  |  |  |  |  |
